From article PMC10326263 (Acta Pharmaceutica Sinica. B, 2023)

Experiments:
HIV-1 WT strain (IIIB) = assay: Anti-HIV activity against WT HIV-1
[1] = system: HIV-1 mutant strain K103N; assay: microbe, parasite or virus in culture; type: cell-based; settings: Human immunodeficiency virus 1, MT4, read-out: EC50 K103N
[2] = system: HIV-1 mutant strain Y188L; assay: microbe, parasite or virus in culture; type: cell-based; settings: Human immunodeficiency virus 1, MT4, read-out: EC50 Y188L
[3] = system: HIV-1 mutant strain L100I; assay: microbe, parasite or virus in culture; type: cell-based; settings: Human immunodeficiency virus 1, MT4, read-out: EC50 L100I
[4] = system: HIV-1 mutant strain Y181C; assay: microbe, parasite or virus in culture; type: cell-based; settings: Human immunodeficiency virus 1, MT4, read-out: EC50 Y181C
[5] = system: HIV-1 mutant strain F227L + V106A; assay: microbe, parasite or virus in culture; type: cell-based; settings: Human immunodeficiency virus 1, MT4, read-out: EC50 F227L + V106A
[6] = system: HIV-1 mutant strain E138K; assay: microbe, parasite or virus in culture; type: cell-based; settings: Human immunodeficiency virus 1, MT4, read-out: EC50 E138K
[7] = Cytotoxicity in mock-infected MT-4 cells, MTT method; type: cell-based; settings: human, mock-infected MT-4 cells, CC50, mock-infected MT-4 cells
[8] = system: HIV-1 mutant strain RES056 (K103N + Y181C); assay: microbe, parasite or virus in culture; type: cell-based; settings: Human immunodeficiency virus 1, MT4, read-out: EC50 RES056

## Cc1cc(C)cc(S(=O)(=O)c2c(C(=O)NCCCCCNS(=O)(=O)c3ccc([N+](=O)[O-])cc3)[nH]c3ccc(Cl)cc23)c1 [R3L5, 5-Chloro-3-((3,5-dimethylphenyl)sulfonyl)-N-(5-((4-nitrophenyl)sulfonamido)pentyl)-1H-indole-2-carboxamide]
HIV-1 WT strain (IIIB); WT HIV-1 IIIB
  SI IIIB (CC50/EC50 ratio): >7548
[1]
  EC50: 0.9 ± 0.079 µM
[2]
  EC50: 2.47 ± 0.16 µM
[3]
  EC50: 0.13 ± 0.0063 µM
[4]
  EC50: 0.3 µM
[5]
  EC50: 0.54 ± 0.14 µM
[6]
  EC50: 0.25 ± 0.032 µM
[7]
  CC50 at 5 days: > 198 µM
[8]
  EC50: 25.14 ± 0.047 µM

## Cc1cc(C)cc(S(=O)(=O)c2c(C(=O)NCCNS(=O)(=O)c3ccc(C#N)cc3)[nH]c3ccc(Cl)cc23)c1 [R5L2, 5-Chloro-3-((3,5-dimethylphenyl)sulfonyl)-N-(2-((4-cyanophenyl)sulfonamido)ethyl)-1H-indole-2-carboxamide]
HIV-1 WT strain (IIIB); WT HIV-1 IIIB
  SI IIIB (CC50/EC50 ratio): 362
[1]
  EC50: 0.84 ± 0.035 µM
[2]
  EC50: 3.07 ± 0.12 µM
[3]
  EC50: 0.77 ± 0.035 µM
[4]
  EC50: 0.89 ± 0.018 µM
[5]
  EC50: 1.75 ± 0.053 µM
[6]
  EC50: 1.26 µM
[7]
  CC50 at 5 days: 23.6 ± 0.58 µM
[8]
  EC50: 3.37 ± 0.21 µM

## Cc1cc(C)cc(S(=O)(=O)c2c(C(=O)NCCCNS(=O)(=O)c3cccs3)[nH]c3ccc(Cl)cc23)c1 [R8L3, 5-Chloro-3-((3,5-dimethylphenyl)sulfonyl)-N-(3-(thiophene-2-sulfonamido)propyl)-1H-indole-2-carboxamide]
HIV-1 WT strain (IIIB); WT HIV-1 IIIB
  SI IIIB (CC50/EC50 ratio): 2105
[1]
  EC50: 1.03 ± 0.19 µM
[2]
  EC50: 3.54 ± 0.34 µM
[3]
  EC50: 0.5 ± 0.14 µM
[4]
  EC50: 1.06 ± 0.018 µM
[5]
  EC50: 1.65 ± 0.27 µM
[6]
  EC50: 0.28 ± 0.018 µM
[7]
  CC50 at 5 days: 121 ± 33.5 µM
[8]
  EC50: 5.38 ± 1.29 µM

## Cc1ccc(S(=O)(=O)NCCCCNC(=O)c2[nH]c3ccc(Cl)cc3c2S(=O)(=O)c2cc(C)cc(C)c2)cc1 [R1L4, 5-Chloro-3-((3,5-dimethylphenyl)sulfonyl)-N-(4-((4-methylphenyl)sulfonamido)butyl)-1H-indole-2-carboxamide]
HIV-1 WT strain (IIIB); WT HIV-1 IIIB
  SI IIIB (CC50/EC50 ratio): 3232
[1]
  EC50: 0.31 ± 0.068 µM
[2]
  EC50: 1.52 ± 0.27 µM
[3]
  EC50: 0.16 ± 0.085 µM
[4]
  EC50: 0.31 ± 0.068 µM
[5]
  EC50: 0.31 ± 0.034 µM
[6]
  EC50: 0.13 ± 0.085 µM
[7]
  CC50 at 5 days: 103 ± 59.8 µM
[8]
  EC50: > 103 µM

## Cc1cc(C)cc(S(=O)(=O)c2c(C(=O)NCCCCNS(=O)(=O)c3cccc(F)c3)[nH]c3ccc(Cl)cc23)c1 [R12L4, 5-Chloro-3-((3,5-dimethylphenyl)sulfonyl)-N-(4-((3-fluorophenyl)sulfonamido)butyl)-1H-indole-2-carboxamide]
HIV-1 WT strain (IIIB); WT HIV-1 IIIB
  SI IIIB (CC50/EC50 ratio): 10,126
[1]
  EC50: 0.24 ± 0.068 µM
[2]
  EC50: 1.45 ± 0.41 µM
[3]
  EC50: 0.063 ± 0.017 µM
[4]
  EC50: 0.19 ± 0.034 µM
[5]
  EC50: 0.24 ± 0.034 µM
[6]
  EC50: 0.049 ± 0.012 µM
[7]
  CC50 at 5 days: 186 ± 12.5 µM
[8]
  EC50: > 173 µM

## Cc1cc(C)cc(S(=O)(=O)c2c(C(=O)NCCNS(=O)(=O)c3ccc([N+](=O)[O-])cc3)[nH]c3ccc(Cl)cc23)c1 [R3L2, 5-Chloro-3-((3,5-dimethylphenyl)sulfonyl)-N-(2-((4-nitrophenyl)sulfonamido)ethyl)-1H-indole-2-carboxamide]
HIV-1 WT strain (IIIB); WT HIV-1 IIIB
  SI IIIB (CC50/EC50 ratio): >1764
[1]
  EC50: 0.59 ± 0.1 µM
[2]
  EC50: > 212 µM
[3]
  EC50: 0.95 ± 0.085 µM
[4]
  EC50: 1 ± 0.17 µM
[5]
  EC50: 6.17 ± 1.14 µM
[6]
  EC50: 1.15 µM
[7]
  CC50 at 5 days: > 212 µM
[8]
  EC50: > 212 µM

## COc1ccc(S(=O)(=O)NCCCCNC(=O)c2[nH]c3ccc(Cl)cc3c2S(=O)(=O)c2cc(C)cc(C)c2)cc1 [R2L4, 5-Chloro-3-((3,5-dimethylphenyl)sulfonyl)-N-(4-((4-methoxyphenyl)sulfonamido)butyl)-1H-indole-2-carboxamide]
HIV-1 WT strain (IIIB); WT HIV-1 IIIB
  SI IIIB (CC50/EC50 ratio): 615
[1]
  EC50: 0.33 ± 0.033 µM
[2]
  EC50: 0.8 ± 0.083 µM
[3]
  EC50: 0.18 µM
[4]
  EC50: 0.33 µM
[5]
  EC50: 0.28 ± 0.033 µM
[6]
  EC50: 0.25 ± 0.05 µM
[7]
  CC50 at 5 days: 22.5 ± 9.14 µM
[8]
  EC50: > 22.5 µM

## COc1ccc(S(=O)(=O)NCCCNC(=O)c2[nH]c3ccc(Cl)cc3c2S(=O)(=O)c2cc(C)cc(C)c2)cc1 [R2L3, 5-Chloro-3-((3,5-dimethylphenyl)sulfonyl)-N-(3-((4-methoxyphenyl)sulfonamido)propyl)-1H-indole-2-carboxamide]
HIV-1 WT strain (IIIB); WT HIV-1 IIIB
  SI IIIB (CC50/EC50 ratio): 4354
[1]
  EC50: 0.66 ± 0.085 µM
[2]
  EC50: 5.98 ± 0.31 µM
[3]
  EC50: 0.32 µM
[4]
  EC50: 0.83 ± 0.068 µM
[5]
  EC50: 0.97 ± 0.051 µM
[6]
  EC50: 0.25 µM
[7]
  CC50 at 5 days: 163 ± 15.3 µM
[8]
  EC50: > 163 µM

## Cc1cc(C)cc(S(=O)(=O)c2c(C(=O)NCCCCCNS(=O)(=O)c3ccccc3)[nH]c3ccc(Cl)cc23)c1 [R9L5, 5-Chloro-3-((3,5-dimethylphenyl)sulfonyl)-N-(5-(phenylsulfonamido)pentyl)-1H-indole-2-carboxamide]
HIV-1 WT strain (IIIB); WT HIV-1 IIIB
  SI IIIB (CC50/EC50 ratio): 8814
[1]
  EC50: 0.34 ± 0.051 µM
[2]
  EC50: 1.46 ± 0.56 µM
[3]
  EC50: 0.044 ± 0.005 µM
[4]
  EC50: 0.22 ± 0.017 µM
[5]
  EC50: 0.22 ± 0.085 µM
[6]
  EC50: 0.036 ± 0.007 µM
[7]
  CC50 at 5 days: 129 ± 6.85 µM
[8]
  EC50: > 119 µM

## Cc1cc(C)cc(S(=O)(=O)c2c(C(=O)NCCNS(=O)(=O)C3CC3)[nH]c3ccc(Cl)cc23)c1 [R13L2, 5-Chloro-N-(2-(cyclopropanesulfonamido)ethyl)-3-((3,5-dimethylphenyl)sulfonyl)-1H-indole-2-carboxamide]
HIV-1 WT strain (IIIB); WT HIV-1
  selectivity index, times higher than that of IAS-0: ~14 times
HIV-1 WT strain (IIIB); WT HIV-1 IIIB
  SI IIIB (CC50/EC50 ratio): 41,951
HIV-1 WT strain (IIIB); read-out: EC50 IIIB, WT HIV-1 IIIB, MT-4 cells
  EC50: 0.0041 ± 0.00079 µM
[1]
  EC50: 0.11 ± 0.02 µM
[2]
  EC50: 1.65 ± 0.39 µM
[3]
  EC50: 0.053 ± 0.022 µM
[4]
  EC50: 0.18 ± 0.057 µM
[5]
  EC50: 0.51 ± 0.12 µM
[6]
  EC50: 0.055 ± 0.016 µM
[7]
  CC50 at 5 days: 172 ± 6.91 µM
[8]
  EC50: 32.6 ± 7.96 µM

## Cc1cc(C)cc(S(=O)(=O)c2c(C(=O)NCCCCCNS(=O)(=O)c3cccnc3)[nH]c3ccc(Cl)cc23)c1 [R10L5, 5-Chloro-3-((3,5-dimethylphenyl)sulfonyl)-N-(5-(pyridine-3-sulfonamido)pentyl)-1H-indole-2-carboxamide]
HIV-1 WT strain (IIIB); WT HIV-1 IIIB
  SI IIIB (CC50/EC50 ratio): 5513
[1]
  EC50: 0.19 ± 0.034 µM
[2]
  EC50: 0.73 ± 0.034 µM
[3]
  EC50: 0.046 ± 0.014 µM
[4]
  EC50: 0.11 ± 0.022 µM
[5]
  EC50: 0.14 ± 0.075 µM
[6]
  EC50: 0.029 ± 0.012 µM
[7]
  CC50 at 5 days: 41.9 ± 2.18 µM
[8]
  EC50: 10.6 ± 6.7 µM

## Cc1cc(C)cc(S(=O)(=O)c2c(C(=O)NCCCNS(=O)(=O)c3cccc(F)c3)[nH]c3ccc(Cl)cc23)c1 [R12L3, 5-Chloro-3-((3,5-dimethylphenyl)sulfonyl)-N-(3-((3-fluorophenyl)sulfonamido)propyl)-1H-indole-2-carboxamide]
HIV-1 WT strain (IIIB); WT HIV-1 IIIB
  SI IIIB (CC50/EC50 ratio): 5799
[1]
  EC50: 0.45 ± 0.12 µM
[2]
  EC50: 3.38 ± 0.45 µM
[3]
  EC50: 0.26 ± 0.087 µM
[4]
  EC50: 0.75 ± 0.21 µM
[5]
  EC50: 0.99 ± 0.14 µM
[6]
  EC50: 0.11 ± 0.043 µM
[7]
  CC50 at 5 days: 204 ± 10.8 µM
[8]
  EC50: 4.73 ± 1.04 µM

## COc1ccc(S(=O)(=O)NCCCCCNC(=O)c2[nH]c3ccc(Cl)cc3c2S(=O)(=O)c2cc(C)cc(C)c2)cc1 [R2L5, 5-Chloro-3-((3,5-dimethylphenyl)sulfonyl)-N-(5-((4-methoxyphenyl)sulfonamido)pentyl)-1H-indole-2-carboxamide]
HIV-1 WT strain (IIIB); WT HIV-1 IIIB
  SI IIIB (CC50/EC50 ratio): 4772
[1]
  EC50: 0.57 µM
[2]
  EC50: 1.28 ± 0.44 µM
[3]
  EC50: 0.094 ± 0.047 µM
[4]
  EC50: 0.19 ± 0.016 µM
[5]
  EC50: 0.28 ± 0.065 µM
[6]
  EC50: 0.13 ± 0.049 µM
[7]
  CC50 at 5 days: 110 ± 7.89 µM
[8]
  EC50: > 110 µM

## Cc1cc(C)cc(S(=O)(=O)c2c(C(=O)NCCCCNS(=O)(=O)c3ccccc3F)[nH]c3ccc(Cl)cc23)c1 [R11L4, 5-Chloro-3-((3,5-dimethylphenyl)sulfonyl)-N-(4-((2-fluorophenyl)sulfonamido)butyl)-1H-indole-2-carboxamide]
HIV-1 WT strain (IIIB); WT HIV-1 IIIB
  SI IIIB (CC50/EC50 ratio): 20,621
[1]
  EC50: 0.17 ± 0.017 µM
[2]
  EC50: 1.74 ± 0.32 µM
[3]
  EC50: 0.063 ± 0.025 µM
[4]
  EC50: 0.2 ± 0.017 µM
[5]
  EC50: 0.29 ± 0.034 µM
[6]
  EC50: 0.036 ± 0.005 µM
[7]
  CC50 at 5 days: 189.5 ± 1.32 µM
[8]
  EC50: > 190 µM
